In patent publication US11208443B2, “NAF-1 derived peptides and uses thereof” (YISSUM RESEARCH DEVELOPMENT COMPANY OF THE HEBREW …, priority 2017, dated 2021):
Read-outs that look alike come from different tables or passages of the source. Non-standard residues stand in square brackets, D forms with d. Residues, ends and D or L forms follow the SMILES beside them. No end group written: not given here. PEG8 = NCCOCCOCCOCCOCCOCCOCCOCCOCCC(=O)O

Tests used:
[1] = tested on: chymotrypsin; assay: Stability against protease cleavage, HPLC; format: in vitro ADME
Procedure: Stability of the D-PEP, and 3D-PEP, analogs, and of PEG-N-3D-PEP and PEG-C-3D-PEP conjugates against protease cleavage (chymotrypsin and trypsin) was tested and compared to stability of the native peptide having SEQ ID NO: 1. To peptides' stocks of 430 μl in concentration of 450 μM were added 0.001 mg/ml protease (Trypsin or Chymotrypsin) and incubated in room temperature (22° C.). Samples of 40 μl were taken before adding the protease and after every 15 min in the first hour, and after 2 […] and 24 h. To stop the proteolysis samples were added 7 μl of 2% TFA in TDW. The samples were added 60 μl TDW and were analyzed using analytical HPLC.

[2] = tested on: MCF-10A cells
Procedure: The ability of the peptide having the sequence SEQ ID NO: 1 to penetrate into the cells and its effect on cells' viability was tested as following. Green fluorescein was conjugated to the peptide having SEQ ID NO: 1 (the labeled peptide is referred as PEP-FL). Then, the fluorescent peptide was incubated with normal, non-tumor epithelial cell line (MCF-10A) and malignant (MDA-MB-231) breast epithelial cells. The mitochondria of the cells were labeled red with RPA and the cells' nuclei were labeled with Hoechst 33342 (blue dye).

[3] = Cell viability of malignant cells (Examples 1, 6, 10); format: cell-based, human
Description: (§1) However, substitution of several amino acids to Ala drastically diminished the toxicity of these analogs.

[4] = tested on: MDA-MB-231 cells; assay: as above; format: cell-based, human
Description: as §1

[5] = tested on: MDA-MB-231 cells; assay: Effect of labeled peptide on mitochondria and nuclei, confocal imaging; format: cell-based, human
Procedure: (§2) To elucidate the site of action of the peptide having SEQ ID NO: 1, the peptide was labeled as described in Example 1 and incubated with normal and malignant cells (MCF-10A and MDA-MB-231 cells, respectively). […] Without being bound to any specific theory it was estimates that the peptide affects or disrupts the structure of the mitochondrial and nuclear membrane.

[6] = tested on: MCF-10A cells; assay: Penetration of fluorescein-labeled peptide into non-malignant cells; format: cell-based; conditions: FIG. 2
Procedure: as §2
(§3) In addition to D-PEP peptide (SEQ ID NO:3), in which all amino acids of SEQ ID NO: 1 were substituted to D-amino acids, a peptide comprising only 3 D-amino acids was produced and has the sequence FLGVLALLGyLAVRPfLPKkKQQK (SEQ ID NO: 2, referred as 3D-PEP). This peptide, as well as D-PEP, both marked with Fluorescein, were tested for their ability to penetrate into non-tumor MCF-10A and malignant MDA-MB-231 and for their toxicity, as described in Example 3. Briefly, cells were incubated with 10 μM of each sample of the peptides for 3 h and then intensively washed. Cell fluorescence was observed by semi-confocal microscope. For cell viability measurement, cells were incubated with 10 μM or 5 μM of each one of the peptides for 5 days and then cell viability was assayed using Alamar blue assay.

[7] = tested on: MCF-10A cells; assay: Effect of labeled peptide on nuclei, confocal imaging; format: cell-based; conditions: FIG. 6C
Procedure: as §2

[8] = tested on: MDA-MB-231 cells; assay: Penetration of fluorescein-labeled peptide into malignant cells; format: cell-based, human; conditions: FIG. 2, FIG. 6A
Procedure: as §2, §3

## CC(C)C[C@H](NC(=O)[C@H](C)NC(=O)[C@H](CC(C)C)NC(=O)[C@@H](NC(=O)CNC(=O)[C@H](CC(C)C)NC(=O)[C@@H](N)Cc1ccccc1)C(C)C)C(=O)N[C@@H](CC(C)C)C(=O)NCC(=O)N[C@H](Cc1ccc(O)cc1)C(=O)N[C@@H](CC(C)C)C(=O)N[C@@H](C)C(=O)N[C@H](C(=O)N[C@@H](CCCNC(=N)N)C(=O)N1CCC[C@H]1C(=O)N[C@H](Cc1ccccc1)C(=O)N[C@@H](CC(C)C)C(=O)N1CCC[C@H]1C(=O)N[C@@H](CCCCN)C(=O)N[C@H](CCCCN)C(=O)N[C@@H](CCCCN)C(=O)N[C@@H](CCC(N)=O)C(=O)N[C@@H](CCC(N)=O)C(=O)N[C@@H](CCCCN)C(=O)O)C(C)C [3D-PEP, FLGVLALLGyLAVRPfLPKkKQQK] (H-FLGVLALLG[dY]LAVRP[dF]LPK[dK]KQQK-OH; N-terminus and C-terminus assumed)
[1]
  half life against chymotrypsin compared to native peptide: much longer half life

## CC(C)C[C@H](NC(=O)[C@H](C)NC(=O)[C@H](CC(C)C)NC(=O)[C@@H](NC(=O)CNC(=O)[C@H](CC(C)C)NC(=O)[C@@H](N)Cc1ccccc1)C(C)C)C(=O)N[C@@H](CC(C)C)C(=O)NCC(=O)N[C@H](Cc1ccc(O)cc1)C(=O)N[C@@H](CC(C)C)C(=O)N[C@@H](C)C(=O)N[C@H](C(=O)N[C@@H](CCCNC(=N)N)C(=O)N1CCC[C@H]1C(=O)N[C@H](Cc1ccccc1)C(=O)N[C@@H](CC(C)C)C(=O)N1CCC[C@H]1C(=O)N[C@@H](CCCCN)C(=O)N[C@H](CCCCN)C(=O)N[C@@H](CCCCN)C(=O)N[C@@H](CCC(N)=O)C(=O)N[C@@H](CCC(N)=O)C(=O)N[C@@H](CCCCN)C(=O)NCCOCCOCCOCCOCCOCCOCCOCCOCCC(N)=O)C(C)C [PEG-C-3D-PEP] (H-FLGVLALLG[dY]LAVRP[dF]LPK[dK]KQQK[PEG8]-NH2; N-terminus assumed)
[2]
  effect on viability of normal cells: much weaker effect
[3]
  cytotoxicity: ~70%

## CC(C)C[C@H](NC(=O)[C@H](C)NC(=O)[C@H](CC(C)C)NC(=O)[C@@H](NC(=O)CNC(=O)[C@H](CC(C)C)NC(=O)[C@H](Cc1ccccc1)NC(=O)CCOCCOCCOCCOCCOCCOCCOCCOCCN)C(C)C)C(=O)N[C@@H](CC(C)C)C(=O)NCC(=O)N[C@H](Cc1ccc(O)cc1)C(=O)N[C@@H](CC(C)C)C(=O)N[C@@H](C)C(=O)N[C@H](C(=O)N[C@@H](CCCNC(=N)N)C(=O)N1CCC[C@H]1C(=O)N[C@H](Cc1ccccc1)C(=O)N[C@@H](CC(C)C)C(=O)N1CCC[C@H]1C(=O)N[C@@H](CCCCN)C(=O)N[C@H](CCCCN)C(=O)N[C@@H](CCCCN)C(=O)N[C@@H](CCC(N)=O)C(=O)N[C@@H](CCC(N)=O)C(=O)N[C@@H](CCCCN)C(N)=O)C(C)C [PEG-N-3D-PEP] (H-[PEG8]FLGVLALLG[dY]LAVRP[dF]LPK[dK]KQQK-NH2; C-terminus assumed)
[2]
  effect on viability of normal cells: much weaker effect
[3]
  cytotoxicity: ~80%

## CC(C)C[C@H](NC(=O)[C@H](C)NC(=O)[C@H](C)NC(=O)[C@@H](NC(=O)CNC(=O)[C@H](C)NC(=O)[C@H](C)N)C(C)C)C(=O)N[C@@H](CC(C)C)C(=O)NCC(=O)N[C@@H](Cc1ccc(O)cc1)C(=O)N[C@@H](CC(C)C)C(=O)N[C@@H](C)C(=O)N[C@H](C(=O)N[C@@H](CCCNC(=N)N)C(=O)N1CCC[C@H]1C(=O)N[C@@H](Cc1ccccc1)C(=O)N[C@@H](CC(C)C)C(=O)N1CCC[C@H]1C(=O)N[C@@H](CCCCN)C(=O)N[C@@H](CCCCN)C(=O)N[C@@H](CCCCN)C(=O)N[C@@H](CCC(N)=O)C(=O)N[C@@H](CCC(N)=O)C(=O)N[C@@H](CCCCN)C(=O)O)C(C)C [PEP-F44A-L45A-L48A] (H-AAGVAALLGYLAVRPFLPKKKQQK-OH; N-terminus and C-terminus assumed)
[4]
  cytotoxic activity of alanine analogs: completely lost their cytotoxic activity

## CC(C)C[C@H](NC(=O)[C@H](C)NC(=O)[C@H](CC(C)C)NC(=O)[C@@H](NC(=O)CNC(=O)[C@H](C)NC(=O)[C@H](C)N)C(C)C)C(=O)N[C@@H](CC(C)C)C(=O)NCC(=O)N[C@@H](Cc1ccc(O)cc1)C(=O)N[C@@H](CC(C)C)C(=O)N[C@@H](C)C(=O)N[C@H](C(=O)N[C@@H](CCCNC(=N)N)C(=O)N1CCC[C@H]1C(=O)N[C@@H](Cc1ccccc1)C(=O)N[C@@H](CC(C)C)C(=O)N1CCC[C@H]1C(=O)N[C@@H](CCCCN)C(=O)N[C@@H](CCCCN)C(=O)N[C@@H](CCCCN)C(=O)N[C@@H](CCC(N)=O)C(=O)N[C@@H](CCC(N)=O)C(=O)N[C@@H](CCCCN)C(=O)O)C(C)C [PEP-F44A-L45A] (H-AAGVLALLGYLAVRPFLPKKKQQK-OH; N-terminus and C-terminus assumed)
[4]; MDA-MB-231, FIG. 18
  cytotoxic activity of alanine analogs: completely lost their cytotoxic activity

## CC(C)C[C@H](NC(=O)[C@H](C)NC(=O)[C@H](C)NC(=O)[C@H](C)NC(=O)[C@@H](NC(=O)CNC(=O)[C@H](CC(C)C)NC(=O)[C@@H](N)Cc1ccccc1)C(C)C)C(=O)NCC(=O)N[C@@H](Cc1ccc(O)cc1)C(=O)N[C@@H](CC(C)C)C(=O)N[C@@H](C)C(=O)N[C@H](C(=O)N[C@@H](CCCNC(=N)N)C(=O)N1CCC[C@H]1C(=O)N[C@@H](Cc1ccccc1)C(=O)N[C@@H](CC(C)C)C(=O)N1CCC[C@H]1C(=O)N[C@@H](CCCCN)C(=O)N[C@@H](CCCCN)C(=O)N[C@@H](CCCCN)C(=O)N[C@@H](CCC(N)=O)C(=O)N[C@@H](CCC(N)=O)C(=O)N[C@@H](CCCCN)C(=O)O)C(C)C [PEP-L48A-L50A] (H-FLGVAAALGYLAVRPFLPKKKQQK-OH; N-terminus and C-terminus assumed)
[4]
  cytotoxic activity of alanine analogs: completely lost their cytotoxic activity

## PEP-FL: Green fluorescein was conjugated to the peptide having SEQ ID NO: 1 (FLGVLALLGYLAVRPFLPKKKQQK; also: green fluorescein conjugated, site not given here)
[5]; 12 hours of incubation, FIG. 6C
  effect on nuclei of malignant cells: completely disappeared
[5]; time after peptide addition, FIG. 6B
  effect on mitochondria of malignant cells: disappeared within three hours
[6]
  uptake of fluorescent peptide by normal cells: not by normal cells
[7]
  effect on nuclei of normal cells: no serious damage
[8]
  uptake of fluorescent peptide by malignant cells: preferentially up-taken by the cancer MDA-MB-231 cells
